Measured values reported in publication PMC3458928, “Co-Factor Binding Confers Substrate Specificity to Xylose Reductase from Debaryomyces hansenii” (PLoS ONE, 2012).
Where two headings read alike, the source gives them in different places.

How the values were obtained:
[1] = molecular target: apo-DhXR (wild type xylose reductase) (Debaryomyces hansenii, UniProt Q6BLI9); experiment: Tryptophan fluorescence quenching titration, ligand binding to apo-DhXR wild type
Procedure: (§1) Titrations of DhXR with ligands were examined by monitoring the intrinsic tryptophan fluorescence of DhXR using a Varian spectrofluorometer. Experiments were performed in indicated buffers as mentioned in the text. The excitation wavelength and emission wavelengths for monitoring DhXR-ligand interaction were 292 nm and 345 nm respectively. Slit widths were set to 5 nm for all experiments and PMT voltage was adjusted to get maximum signal for a given protein concentration. All experiments were done at 25.0±1°C. Initial readings of both the protein, Fprotein,0 and buffer, Fbuff,0 were taken, with F0 = Fprotein,0–Fbuff,0 defined as the initial fluorescence of the sample. The sample cuvette was then titrated with aliquots of ligands and mixed, and equilibrated for 3–4 minutes before measurement. Data points from five such measurements were averaged to obtain Fave,i. The relative fluorescence quenching upon sugar binding is defined as Qobs,i = (F0–Fave,i)/F0. All measurements were corrected for dilution, and inner filter effects.
(§2) Binding of ligands to DhXR was analyzed using two site binding model. [drawing 1] (1) where Q1 and Q2 are the fluorescence quenching corresponding to one and two ligands bound, respectively; L is concentration of free ligand in solution; K1,obs and K2,obs are association constants for the binding of the first and the second ligand molecule. Errors were calculated from fitting analysis of two independent experiments.
We examined the binding of D-xylose, xylitol, and NADPH to apo-DhXR. Quenching of tryptophan fluorescence upon ligand binding was used as the signal for monitoring the extent of binding. Apo-DhXR was excited at 292 nm and emission of tryptophan fluorescence was scanned between 300–375 nm (Fig. S2). […] Intrinsic site-specific binding constants are estimated from the macroscopic binding constants obtained from fitting by removing the statistical factors as in eq (2). [drawing 2] (2)

DhXR H109A mutant = DhXR H109A mutant (Debaryomyces hansenii, UniProt Q6BLI9, H109A); experiment: biochemical; type: binding
Procedure: as §1, §2
(§3) We tested the activity of all mutants and activities were normalized to the activity of wild type DhXR with respect to its D-xylose reducing activity.

DhXR K76A mutant = DhXR K76A mutant (Debaryomyces hansenii, UniProt Q6BLI9, K76A); experiment: biochemical; type: binding
Procedure: as §1, §2, §3

DhXR Y47A mutant = DhXR Y47A mutant (Debaryomyces hansenii, UniProt Q6BLI9, Y47A); experiment: biochemical; type: binding
Procedure: as §1, §2, §3

holo-DhXR [2] = molecular target: T1, holo-DhXR (Debaryomyces hansenii, UniProt Q6BLI9); experiment: Steady state kinetics of carbonyl substrate reduction by holo-DhXR (A340, NADPH); type: biochemical; conditions: for Vmax / k cat: 25 °C, pH 7.0, 0.15 mM NADPH, 0.18 µM enzyme
Procedure: (§4) The xylose reductase activities of recombinant DhXR was determined spectrophotometrically by monitoring the change in A340 upon reduction of NADPH to NADP. The standard assay mixture contained 50 mM KPO4, pH 7.0, 100 mM sugar substrate, 0.3 mM NADPH, 0.18 µM of enzyme. Single point activity studies were performed at 40°C and all reactions were started by the addition of enzyme to a final volume of 0.8 ml (in standard assay condition). […] Errors for the activity assays were calculated from triplicate experiments. The kinetic parameters were determined using a range of substrate concentrations. Here, the reaction was performed at 25°C and assay mixture contained 50 mM KPO4, pH 7.0, 0.15 mM NADPH, 0.18 µM of enzyme and varying substrate concentrations. Steady state kinetics data were fit to Michaelis-Menten model, v = Vmax * [S]/([S]+Km), where Vmax, maximal velocity; Km, Michaelis-Menten constant; S, substrate concentration, and v, initial velocity.
To understand the specificity determining component in catalysis, we studied the steady state kinetics of holo-DhXR towards different carbonyl substrates. […] Therefore, all kinetic data analyzed fitting to Michaelis-Menten model by Non-Linear Least Squares method. (Fig. 4A). Steady state kinetic parameters are also determined for other sugars (table 3, Fig. 4B). […] We compared the Km/Kd ratio as an indicator of net affinity loss for a given substrate (Fig. S5).
In order to further verify that holoenzyme discriminates between substrate and non-substrate sugars, we challenged the catalysis of D-xylose by adding non-substrate sugars during kinetic experiments. […] We studied the kinetics of D-xylose reduction by holo-DhXR in the presence of fixed concentration (∼40 mM) of three sugars (Fig. 4C).

holo-DhXR [3] = molecular target: T1, holo-DhXR; experiment: Specific activity of DhXR with 100 mM D-xylose in presence of competing sugars; type: biochemical
Procedure: as §4
Assays were performed at 100 mM D-xylose and concentrations of competing sugars were varied (25 mM to 400 mM). […] Both DhXR and NADPH (20.0 µM) are pre-incubated and fluorescence signal was monitored until no further change. […] It should be noted that D-xylose is the substrate and is very likely to be reduced soon after binding.

DhXR D10A mutant = molecular target: T2, DhXR D10A mutant (Debaryomyces hansenii, UniProt Q6BLI9, D10A); experiment: Fluorescence quenching titration, ligand binding to DhXR D10A mutant
T2 sequence (Q6BLI9 1-317 D10A): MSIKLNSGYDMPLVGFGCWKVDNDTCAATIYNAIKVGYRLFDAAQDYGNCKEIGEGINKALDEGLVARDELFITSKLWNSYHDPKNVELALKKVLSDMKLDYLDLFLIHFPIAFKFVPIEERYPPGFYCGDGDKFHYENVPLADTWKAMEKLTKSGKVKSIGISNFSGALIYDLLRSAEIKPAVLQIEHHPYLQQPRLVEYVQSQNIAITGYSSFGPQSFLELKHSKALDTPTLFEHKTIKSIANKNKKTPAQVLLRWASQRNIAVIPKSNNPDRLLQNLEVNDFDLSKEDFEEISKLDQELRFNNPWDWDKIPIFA
Procedure: as §1, §2, §3

DhXR D42A mutant = molecular target: T3, DhXR D42A mutant (Debaryomyces hansenii, UniProt Q6BLI9, D42A); experiment: Fluorescence quenching titration, ligand binding to DhXR D42A mutant
T3 sequence (Q6BLI9 1-317 D42A): T2 sequence (Q6BLI9 1-317 D10A)
Procedure: as §1, §2, §3

DhXR N305A mutant = molecular target: T4, DhXR N305A mutant (Debaryomyces hansenii, UniProt Q6BLI9, N305A); experiment: Fluorescence quenching titration, ligand binding to DhXR N305A mutant
T4 sequence (Q6BLI9 1-317 N305A): T2 sequence (Q6BLI9 1-317 D10A)
Procedure: as §1, §2, §3

[4] = molecular target: Xylose Reductase from Debaryomyces hansenii (Debaryomyces hansenii CBS767); experiment: SEC; purified DhXR, single peak at 52 mL; column calibrated with ferritin, catalase, aldolase, albumin and ovalbumin; estimated mass ~71 kDa
holo-DhXR [5] = molecular target: T1, holo-DhXR; experiment: Single point specific activity of holo-DhXR towards different sugars; type: biochemical; conditions: saturated sugar concentration (100 mM), 40 °C
Procedure: as §4

[6] = 25 mM sugar added in 100 mM D-xylose reaction
[7] = 100 mM sugar added in 100 mM D-xylose reaction
[8] = 400 mM sugar added in 100 mM D-xylose reaction

D-arabinose gave a Kd ([1]; wild type apo-DhXR, first site, 25 °C, read-out: Kd1,int) of 8100 ± 1000 µM, a Kd ([1]; wild type apo-DhXR, second site, 25 °C, read-out: Kd2,int) of 100000 ± 10000 µM and a Kd (DhXR H109A mutant; H109A, first site, read-out: Kd1,int) of 28000 ± 3000 µM. The Kd (DhXR K76A mutant; K76A, first site, read-out: Kd1,int) was 34000 ± 4000 µM, the “reduction in affinity versus wild type” value (DhXR Y47A mutant; Y47A, first site) was 8–10 fold and the Kd (DhXR Y47A mutant; Y47A, first site, read-out: Kd1,int) was 66000 ± 13000 µM. For the same compound, the Vmax (holo-DhXR [2]) was 127.2 ± 6.1 nmol/min, the k cat (holo-DhXR [2]) was 14.1 s⁻¹ and the “Km/Kd ratio (net affinity loss)” value (holo-DhXR [2]; Km of holoenzyme vs Kd of apoenzyme) was ~220 fold. For the same compound, the “catalysis in steady state kinetic curves (in words)” value (holo-DhXR [2]; comparison of kinetic curves of different sugars) was “very weakly hydrolyzed”, the “Km relative to that of D-xylose” value (holo-DhXR [2]; fold higher) was 22 fold and the Specific activity (holo-DhXR [3]; [6]) was 69.4 ± 3.1 nmol/min. It also gave a Specific activity (holo-DhXR [3]; [7]) of 68.2 ± 3.7 nmol/min and a Specific activity (holo-DhXR [3]; [8]) of 66.5 ± 4.5 nmol/min.

In the case of `NC(=O)C1=CN([C@@H]2O[C@H](COP(=O)(O)OP(=O)(O)OC[C@H]3O[C@@H](n4cnc5c(N)ncnc54)[C@H](OP(=O)(O)O)[C@@H]3O)[C@@H](O)[C@H]2O)C=CC1` [NADPH, Nicotinamide adenine dinucleotide phosphate], the Kd ([1]; Kd1,int, wild type apo-DhXR, first site, NADPH) is reported as 1.1 ± 0.2 µM, the “ratio of first to second intrinsic binding constant” value ([1]; affinity of first vs second ligand molecule) is reported as ~4 and the “affinity of cofactor relative to substrate affinity” value ([1]; apoenzyme) is reported as ~4700 times. For the same compound, the Kd ([1]; read-out: Kd2,int, wild type apo-DhXR, second site, NADPH) was 3.9 ± 0.2 µM, the “K1,int (intrinsic association constant, first ligand)” value ([1]; wild type apo-DhXR) was 8.9±0.4×10^5 M^−1 and the Kd (DhXR D10A mutant) was 3.3 ± 0.2 µM. For the same compound, the Kd (DhXR D10A mutant; read-out: Kd2,int, D10A, second site, NADPH) was 10 ± 3 µM, the Kd (DhXR D42A mutant) was 10 ± 0.5 µM and the Kd (DhXR H109A mutant) was 5.5 ± 2 µM. For the same compound, the Kd (DhXR H109A mutant; read-out: Kd2,int, H109A, second site, NADPH) was 83 ± 35 µM, the Kd (DhXR K76A mutant) was 10 ± 0.6 µM and the Kd (DhXR Y47A mutant) was 10 ± 0.7 µM. The Kd (DhXR Y47A mutant; read-out: Kd2,int, Y47A, second site, NADPH) was 192 ± 26 µM, the Kd (DhXR N305A mutant) was 8.3 ± 2 µM and the Kd (DhXR N305A mutant; read-out: Kd2,int, N305A, second site, NADPH) was 90 ± 25 µM.

In the case of “Xylose Reductase from Debaryomyces hansenii (enzyme)”, the stoichiometry N [4] is reported as 2.

In the case of `OC[C@H]1O[C@@](CO)(O[C@H]2O[C@H](CO)[C@@H](O)[C@H](O)[C@H]2O)[C@@H](O)[C@@H]1O` [Sucrose, sucrose], the Kd ([1]; Kd1,int, wild type apo-DhXR, first site, 25 °C) is reported as 7300 ± 1000 µM, the Kd ([1]; Kd2,int, wild type apo-DhXR, second site, 25 °C) is reported as 19000 ± 5000 µM and the Kd (DhXR H109A mutant) is reported as 5000 ± 200 µM. The “reduction in affinity versus wild type” value (DhXR H109A mutant; H109A) was “no reduction”, the Kd (DhXR K76A mutant) was 10000 ± 1000 µM and the Kd (DhXR Y47A mutant) was 11000 ± 2000 µM. For the same compound, the “reduction in affinity versus wild type” value (DhXR Y47A mutant; Y47A, first site) was ~2 fold and the “reduction of holoenzyme activity compared with D-xylose” value (holo-DhXR [5]) was “more than 95%”.

In the case of `O=C[C@H](O)[C@@H](O)[C@@H](O)[C@H](O)CO` [D-galactose], the “reduction in affinity versus wild type” value (DhXR Y47A mutant; Y47A, first site) is reported as 8–10 fold, the Vmax (holo-DhXR [2]) is reported as 136.5 ± 9.4 nmol/min and the k cat (holo-DhXR [2]) is reported as 15.2 s⁻¹. For the same compound, the “reduction of holoenzyme activity compared with D-xylose” value (holo-DhXR [5]) was 50%, the Specific activity (holo-DhXR [3]; [6]) was 76.8 ± 3.8 nmol/min and the Specific activity (holo-DhXR [3]; [7]) was 84.4 ± 3.3 nmol/min. It also gave a Specific activity (holo-DhXR [3]; [8]) of 99.3 ± 4.3 nmol/min.
